From patent publication US9119396B2, “Method for promoting plant growth” (SUMITOMO CHEMICAL COMPANY, LIMITED, priority 2011, dated 2015)

Tests used:
Format in all cases: in vivo
[1] = tested on: Rice (cultivar: Nipponbare); assay: Test Example 6: reduction of drought stress by immersion treatment of rice; settings: hydroponic solution 10 ppm for 14 days, drought stress 2 days, then 14 days cultivation
Method: Evaluation Test for Reduction of Drought Stress by Immersion Treatment of Rice Rice (cultivar: Nipponbare) A necessary amount of rice seeds was immersed in an aqueous solution of 1,000 ppm of Benlate, and incubated at 30° C. overnight under dark conditions. The aqueous solution of Benlate was replaced with distilled water, and the seeds were further incubated at 30° C. overnight under dark conditions. A filter paper was placed on the holes of a plug tray having 406 holes, and the rice seeds treated as above were sown on the filter paper. To the rice seeds were added a kimura B solution for hydroponics (see Plant Science 119: 39-47 (1996)) at ½ concentration and a 1/10,000 volume of a DMSO solution containing the present compound 1 at 100,000 ppm, and cultivated for 14 days under the conditions of a temperature of 28° C. in daytime/23° C. in night, a humidity of 60%, an illuminance of 8500 lux, and a day length of 12 hours. […] Fourteen (14) days after the treatment, the fresh weight of the overground parts of five test plants in each treated group was measured. The experiment was performed in three replications in each treated group and the average value was calculated. […]

[2] = tested on: Rice (cultivar: Nipponbare); assay: Test Example 11: reduction of drought stress by treatment of rice seeds; settings: rice seed treatment, 100 g per 100 kg of seeds; drought stress 2 days, then 14 days cultivation
Method: Evaluation Test for Reduction of Drought Stress by Treatment of Rice Seeds Rice (cultivar: Nipponbare) A blank slurry solution containing 5% (V/V) color coat red (Becker Underwood, Inc.), 5% (V/V) CF-Clear (Becker Underwood, Inc.) and 1% Maxim XL (Syngenta) was prepared. A slurry solution was prepared by dissolving the present compound 1 in the blank slurry solution such that 100 g of the compound is applied to each 100 kg of rice seeds. In a 50-ml centrifuge tube (manufactured by AGC TECHNO GLASS CO., LTD.), 0.3 ml of the slurry solution was placed for each 10 g of rice seeds and stirred until the solution was dried, thereby coating the seeds. In addition, seeds were coated with the blank slurry solution and used as seeds for a non-treated group. A filter paper was placed on the holes of a plug tray having 406 holes, and the rice seeds treated above were sown on the filter paper. […] Fourteen (14) days after the treatment, the fresh weight of the overground parts of five test plants in each treated group was measured. The experiment was performed in three replications in each treated group and the average value was calculated. […]

[3] = tested on: Benthamiana tobacco (Nicotiana benthamiana); assay: Test Example 9: reduction of low-temperature stress in hydroponics of tobacco; settings: tobacco seedlings, medium with 0.1 ppm compound for 7 days; low-temperature stress 1.5±1.0° C. 7 days, then 3 days at 22° C.
Method: Evaluation Test for Reduction of Low-Temperature Stress in Hydroponics of Tobacco (Nicotiana benthamiana) Benthamiana tobacco (Nicotiana benthamiana) DMSO solutions containing each of the present compounds 1, 4 and 5 at a concentration of 100 ppm were prepared. […] These media were used in the treated-group. In a non-treated group, a medium obtained by adding a 1/1,000 volume of DMSO to a Murashige-and-Skoog medium at ½ concentration was used. The seeds of tobacco (Nicotiana benthamiana) were sown on 5 μL of the medium, and incubated at 22° C. overnight. Thereto was added 45 μL of a medium containing each present compound at a concentration of 0.1 ppm, and cultivated for 7 days under the conditions of an illuminance of 4,000 lux, a temperature of 22° C. and a day length of 16 hours, thereby treating the seedlings of tobacco (Nicotiana benthamiana) with the test compound. In the non-treated group, 45 μL of a medium obtained by adding a 1/1,000 volume of DMSO to a Murashige-and-Skoog medium at ½ concentration was added, and treated in the same manner as above. The seedlings of tobacco (Nicotiana benthamiana) treated with the present compounds were cultivated for 7 days under the conditions of an illuminance of 2,000 lux, a temperature of 1.5±1.0° C., and a day length of 16 hours, thereby subjecting to low-temperature stress treatment. The plants of tobacco (Nicotiana benthamiana) subjected to low-temperature stress treatment was cultivated for 3 days under the conditions of an illuminance of 4,000 lux, a temperature of 22° C., and a day length of 16 hours, and then the green leaf area of the plants was visually evaluated. Completely dead plant was scored as 0, the plant without low-temperature stress treatment was scored as 5, the green area was rated on a 6-point scale in ⅕ increments, and the score of not less than 1 was regarded as effective in reducing the stress. As a result of visual evaluation, the green leaf area of plants in the treated group, wherein the plants were treated with the present compound 1, 4 or 5 was much larger than that in the non-treated group.

## COC(=O)c1cc2cc(C(F)(F)F)ccc2s1 [compound 1]
[1]
  fresh weight of the overground part of plants vs non-treated group: much heavier
[2]
  fresh weight of the overground part of plants vs non-treated group: much heavier
[3]
  green leaf area of plants (visual evaluation) vs non-treated group: much larger
